For series [1], the system named is Mus musculus. Briefly: Antiinflammatory activity in CCl4-induced C57BL/6J mouse model of liver injury assessed as reduction in ALT level administered daily for 7 days followed by CCl4 addition and measured after 24 hrs. In kind it is functional, organism-based. To be noted: dose 50-200 mg/kg, time 8.0 day.
The subject of series [2] is RAW264.7. As to the kind of experiment: Antiinflammatory activity in mouse RAW264.7 cells assessed as inhibition of LPS-induced NO production at 10 uM preincubated for 2 hrs followed by LPS stimulation and measured after 24 hrs by Griess method relative to control. It is filed as functional. The note with it: time 26 hrs.
Series [3] relates to Mus musculus. Briefly: Antiinflammatory activity in CCl4-induced C57BL/6J mouse model of liver injury assessed as reduction in TNFalpha expression administered daily for 7 days followed by CCl4 addition and measured after 24 hrs by ELISA. It is filed as functional, organism-based. The note with it: dose 50-200 mg/kg, time 8.0 day. On the technique in general: An ELISA detects its analyte on a solid surface through an enzyme-linked reagent.

Series [4] concerns RAW264.7. As to the kind of experiment: Antiinflammatory activity in mouse RAW264.7 cells assessed as inhibition of LPS-induced IL6 production at 10 uM preincubated for 1 hr followed by LPS stimulation and measured after 22 hrs by ELISA. In kind it is functional, cell-based. The note with it: time 23.0 hrs.
The subject of series [5] is RAW264.7. As to the kind of experiment: Antiinflammatory activity in mouse RAW264.7 cells assessed as inhibition of LPS-induced TNFalpha production at 10 uM preincubated for 1 hr followed by LPS stimulation and measured after 22 hrs by ELISA. In kind it is functional, cell-based. The note with it: time 23.0 hrs.
Series [6] has as its system RAW264.7. As to the kind of experiment: Antiinflammatory activity in mouse RAW264.7 cells assessed as inhibition of LPS-induced COX2 expression preincubated for 1 hr followed by LPS stimulation and measured after 24 hrs by Western blot analysis. To be noted: dose 5-20 µM, time 25.0 hrs. In kind it is functional, cell-based. For orientation: In western blotting, separated proteins are transferred to a membrane and probed.

Series [7] in a line: Cytotoxicity against mouse RAW264.7 cells assessed as cell viability at 40 uM measured after 24 hrs by MTT assay relative to control. It is filed as cell-based. For orientation: Formazan colour is commonly taken as a measure of viable cells.
In series [8] the test system is RAW264.7. As to the kind of experiment: Antiinflammatory activity in mouse RAW264.7 cells assessed as inhibition of LPS-induced NO production preincubated for 2 hrs followed by LPS stimulation and measured after 24 hrs by Griess method. It is filed as functional, cell-based.
The test system of series [9] is Mus musculus. Briefly: Antiinflammatory activity in CCl4-induced C57BL/6J mouse model of liver injury assessed as reduction in liver damage at 50 to 200 mg/kg administered daily for 7 days followed by CCl4 addition and measured after 24 hrs by H and E staining based microscopic analysis. It is filed as functional, organism-based. To be noted: dose 50-200 mg/kg, time 8.0 day.

In series [10] the test system is RAW264.7. Briefly: Cytotoxicity against mouse RAW264.7 cells assessed as reduction in cell viability at 60 uM measured after 24 hrs by MTT assay. It is filed as cell-based. To be noted: raw264.7, 24 h.
For series [11], the system named is RAW264.7. Briefly: Antiinflammatory activity in mouse RAW264.7 cells assessed as inhibition of LPS-induced ROS production preincubated for 1 hr followed by LPS stimulation and measured after 24 hrs by DCFH-DA staining based flow cytometry. In kind it is functional, cell-based. The note with it: dose 2.5-10 µM, time 25.0 hrs.
The subject of series [12] is RAW264.7. As to the kind of experiment: Inhibition of LPS-induced NFkappaB activation in mouse RAW264.7 cells assessed as reduction in p65 nuclear translocation preincubated for 1 hr followed by LPS-stimulation and measured after 0.5 hrs by Western blot analysis. It is filed as cell-based. To be noted: dose 5-20 µM, time 1.5 hrs.
The subject of series [13] is RAW264.7. As to the kind of experiment: Antiinflammatory activity in mouse RAW264.7 cells assessed as inhibition of LPS-induced TNFalpha production preincubated for 1 hr followed by LPS stimulation and measured after 22 hrs by ELISA. In kind it is functional, cell-based. The note with it: dose 1.25-20 µM, time 23.0 hrs.
Series [14] relates to RAW264.7. As to the kind of experiment: Antiinflammatory activity in mouse RAW264.7 cells assessed as inhibition of LPS-induced IL6 production preincubated for 1 hr followed by LPS stimulation and measured after 22 hrs by ELISA. It is filed as functional, cell-based. The note with it: dose 1.25-20 µM, time 23.0 hrs.
The subject of series [15] is Mus musculus. Briefly: Antiinflammatory activity in CCl4-induced C57BL/6J mouse model of liver injury assessed as reduction in IL1beta expression administered daily for 7 days followed by CCl4 addition and measured after 24 hrs by ELISA. In kind it is functional, organism-based. The note with it: dose 50-200 mg/kg, time 8.0 day.
Series [16] has as its system RAW264.7. As to the kind of experiment: Inhibition of LPS-induced NFkappaB activation in mouse RAW264.7 cells assessed as reduction in IkappaBalpha phosphorylation at 5 to 20 uM preincubated for 1 hr followed by LPS-stimulation and measured after 0.5 hrs by Western blot analysis. It is filed as cell-based. To be noted: dose 5-20 µM, time 1.5 hrs.
The test system of series [17] is RAW264.7. As to the kind of experiment: Antiinflammatory activity in mouse RAW264.7 cells assessed as inhibition of LPS-induced IL1beta production at 10 uM preincubated for 1 hr followed by LPS stimulation and measured after 22 hrs by ELISA. In kind it is functional, cell-based. The note with it: time 23.0 hrs.
The subject of series [18] is RAW264.7. Briefly: Antiinflammatory activity in mouse RAW264.7 cells assessed as inhibition of LPS-induced iNOS expression preincubated for 1 hr followed by LPS stimulation and measured after 24 hrs by Western blot analysis. In kind it is functional, cell-based. To be noted: dose 5-20 µM, time 25.0 hrs.
Series [19] has as its system RAW264.7. Briefly: Antiinflammatory activity in mouse RAW264.7 cells assessed as inhibition of LPS-induced IL1beta production preincubated for 1 hr followed by LPS stimulation and measured after 22 hrs by ELISA. It is filed as functional, cell-based. To be noted: dose 1.25-20 µM, time 23.0 hrs.
For series [20], the system named is Mus musculus. Briefly: Antiinflammatory activity in CCl4-induced C57BL/6J mouse model of liver injury assessed as reduction in IL6 expression administered daily for 7 days followed by CCl4 addition and measured after 24 hrs by ELISA. In kind it is functional, organism-based. The note with it: dose 50-200 mg/kg, time 8.0 day.

The inhibition is the relative decrease from the control value, in per cent. By viability is commonly meant a read-out of living cells in per cent, often relative to untreated cells. A word on the IC50: it is the concentration that gives 50% inhibition.

The source made the active and inactive calls. No cut-off for these calls is given here.

For the molecule `CCCn1cc(COc2cc(O)c3c(c2)O[C@H](c2ccc(OC)c(O)c2)C/C3=N\O)nn1`, the Activity result is “Dose-dependent effect” in the series on Mus musculus [1]; “Dose-dependent effect” with Mus musculus [3]; “Non-Toxic” with RAW264.7 [10]; “Dose-dependent effect” in the series on Mus musculus [15]; “Dose-dependent effect” with Mus musculus [20]. Also, the inhibition at 10 µM in the series on RAW264.7 [2] was 67.5%. Moreover, the inhibition entry in the series with RAW264.7 [4], in the series on RAW264.7 [5], in the series on RAW264.7 [16] and in the series with RAW264.7 [17] was “Active” throughout. Further, the inhibition entry in the series on RAW264.7 [6], with RAW264.7 [11], in the series with RAW264.7 [12], with RAW264.7 [13], in the series with RAW264.7 [14] and with RAW264.7 [18] was “Dose-dependent effect” throughout. In addition, the inhibition result with RAW264.7 [19] is “Dose-dependent effect”. Also, in series [7], the viability at 24 h, 40 µM stood at 114%. In the series on RAW264.7 [8], the IC50 was 2.34 µM. In addition, the result with Mus musculus [9] was Active.

On to `COc1ccc([C@@H]2CC(=O)c3c(O)cc(O)cc3O2)cc1O` [HESPERETIN], for which the inhibition at 10 µM with RAW264.7 [2] worked out at 18.4%. In addition, the inhibition entry in the series with RAW264.7 [4], in the series on RAW264.7 [5] and in the series with RAW264.7 [17] was “Active” in each case. Moreover, the viability at 24 h, 40 µM in series [7] came to 121%. Moreover, in the series on RAW264.7 [8], the IC50 stood at 48.6 µM.

`COc1ccc([C@@H]2CC(=O)c3c(O)cc(OCc4cn(CCCO)nn4)cc3O2)cc1O`: the inhibition at 10 µM with RAW264.7 [2] worked out at 32.8%. Further, the inhibition entry in the series on RAW264.7 [4], with RAW264.7 [5] and in the series with RAW264.7 [17] was “Active” in each case. For the same molecule, in [7], the viability at 24 h, 40 µM stood at 121%. For the same molecule, the IC50 in the series with RAW264.7 [8] is 16.7 µM.

For `COc1ccc([C@@H]2CC(=O)c3c(O)cc(OCc4cn(Cc5cccc(Cl)c5)nn4)cc3O2)cc1O`, the inhibition at 10 µM in the series with RAW264.7 [2] turned out to be 28%. The inhibition result with RAW264.7 [4], in the series on RAW264.7 [5] and in the series with RAW264.7 [17] was “Active” each time. The viability at 24 h, 40 µM in series [7] came out at 120%. Moreover, the IC50 in the series on RAW264.7 [8] turned out to be 18.2 µM.

`COc1ccc([C@@H]2CC(=O)c3c(O)cc(OCc4cn(Cc5ccccc5C#N)nn4)cc3O2)cc1O`: the inhibition at 10 µM with RAW264.7 [2] came to 43.6%. Moreover, the inhibition entry in the series with RAW264.7 [4], in the series on RAW264.7 [5] and in the series on RAW264.7 [17] was “Active” each time. Also, the viability at 24 h, 40 µM in [7] was determined as 114%. Also, the IC50 in the series on RAW264.7 [8] stood at 14.6 µM.

(Values after ChEMBL document CHEMBL4732160, “Design and synthesis of 7-O-1,2,3-triazole hesperetin derivatives to relieve inflammation of acute liver injury in mice” (Eur J Med Chem, 2021).)
